Measurements taken from patent US8703815B2, “Small molecules that covalently modify transthyretin” (The Scripps Research Institute, priority 2009, dated 2014).
Several values for one entry are separate records, joined by “and”; a condition that tells them apart may be missing. Equal entries are not always repeated.

Legend:
WT-TTR [1] = target: T1, WT-TTR (Homo sapiens, UniProt P02766); test: Kinetics of the A2-TTR conjugation reaction (fluorescence); format: binding; conditions: A2 6 μM
T1 construct: composed of 127-residue β-sheet-rich subunits; made in house; host or cells: E. coli
Method: Because the one-chain, one-binding-site TTR tag being created is envisioned to be useful for doing pulse-chase studies in the secretory pathway of eukaryotic cells, the kinetics of WT-TTR modification by A2 in concentrated cell lysate was investigated. […] We added WT-TTR at a final concentration of 2 μM (tetramer) to the HeLa cell lysate (2 μg/μL total protein concentration) to which A2 (6 μM) was added. At 37° C., the conjugate formed with a t50 of 18 minutes, within experimental error of the t50 (19 minutes) of TTR (2 μM) conjugate formation with A2 (6 μM) in phosphate buffer (pH 7).
The covalent TTR modifier A2 (1 μL of 0.6 mM solution in DMSO, final concentration: 6 μM) was added to 90 μL of HeLa cell lysate (final protein concentration: 2 μg/μL) and 10 μL of WT-TTR (20 μM in pH 7.0 phosphate buffer, final concentration: 2 μM). The time-dependent fluorescence change of the conjugate derived from A2 was monitored utilizing a microplate spectrophotometer reader (Gemini SpectraMax®, Molecular Devices, Sunnyvale, Calif.) for 3 hours at 37° C. The fluorescence (λex=328 nm and λem=430 nm) was measured from the bottom of the plate without shaking.

[2] = target: T2, TTR in human blood plasma (Homo sapiens, UniProt P02766); test: Modification of TTR in human blood plasma (immunocapture, RP-HPLC); format: binding; conditions: compound 10.8 μM, 24 hours, 37° C.; maximum 50%
T2 construct: RP-HPLC analysis of TTR captured from human plasma; from tissue; host or cells: human blood plasma
Method: Compounds 1-4 (10.8 μM) were incubated for 24 hours at 37° C. with human plasma, wherein the TTR concentration is 3.6-5.4 μM.
Furthermore, compound A2 was evaluated to determine its ability to bind selectively to and then react chemoselectively with TTR over the 4000+ other proteins in human blood plasma. Compound A2 (10.8 μM) was incubated with human blood plasma (TTR concentration is 3.6-5.4 μM) for 24 hours at 37° C. before immunoisolating human TTR using a Sepharose® resin-conjugated anti-TTR polyclonal antibody [Purkey et al., Proc. Natl. Acad. Sci. U.S.A. 2001, 98, 5566-5571].
The modification ratio of TTR by kinetic stabilizers in human plasma was evaluated as described [Purkey et al., Proc. Natl. Acad. Sci. U.S.A. 98:5566-5571 (2001)] with minor modifications. Briefly, compounds (7.5 μL of 1.44 mM solution in DMSO) were added to 1 mL of human plasma and incubated at 37° C. for 24 hours on a rocker (30 rpm). A 1:1 (v/v) slurry of unfunctionalized Sepharose® resin in 10 mM Tris, 140 mM NaCl, pH 8.0 (TSA) was added and the solutions were incubated for 1 hour at 4° C. on a rocker plate, followed by brief centrifugation.
Two 400 μL aliquots of the supernatants were added to 300 μL of 1:1 (v:v) slurry of anti-TTR antibody-conjugated Sepharose® resin in TSA. The solutions were gently rocked at 4° C. for 20 minutes (30 rpm), centrifuged, and supernatants were removed. The resin was washed by shaking for 1 minute in 1 mL of TSA solution containing 0.05% saponin (three times) and then 1 mL of TSA solution (twice). The TTR and bound test compound were dissociated from the resin by adding 155 μL of triethylamine (100 mM, pH 11.5) and vortexing for 1 minute. After centrifugation, 135 μL of solution containing test compound and TTR was analyzed by RP-HPLC as described above except that the linear gradients were run from 100:0 to 0:100 A:B for 45 minutes.

WT-TTR [3] = target: T1, WT-TTR; test: Quantum yield measurement with WT-TTR; format: physicochemical; conditions: compound 7.2 μM
Method: The covalent TTR modifier A1 or A2 or the non-covalent TTR ligand B2 (15 μL of a 1.44 mM solution in DMSO, final concentration: 7.2 μM) was added to 3 mL of a solution of WT-TTR homotetramer (0.2 mg/mL, 3.6 μM) in 10 mM phosphate, 100 mM KCl and 1 mM EDTA (pH 7.0 phosphate buffer). The samples were vortexed, and incubated for 18 hours at 25° C. Quantum yields were measured by following the instructions at the web site: jobinyvon.com/usadivisions/Fluorescence/applications/quantumyieldstrad.pdf. Quinine bisulfate in 0.5 M H2SO4 was used as a reference for comparison (Φf=0.546). [Crosby et al., J. Phys. Chem. 1971, 75, 991-1024.]

[4] = system: WT-TTR in transfected HeLa cells; test: Confocal fluorescence imaging of WT-TTR in transfected HeLa cells; format: cell-based, human; conditions: A2 10 μM, 1 hour
Method: Secreted WT-TTR was produced in HeLa cells by transient transfection and the cells were treated with A2 for 1 hour prior to imaging using confocal fluorescence microscopy. The expression of WT-TTR in the HeLa cells after transient transfection was confirmed using western blot analysis, as was the absence of TTR in the empty vector control. […] TTR conjugate fluorescence co-localized with calnexin indirect immunofluorescence, a marker for the endoplasmic reticulum (ER), confirming that WT-TTR within the secretory pathway is being observed. TTR conjugate fluorescence is also expected in the Golgi and in secretory vesicles, explaining why TTR conjugate fluorescence is observed in organelles in addition to the ER.
HeLa cells were plated on cover slips in DMEM containing 10% FBS at 37° C. under 5% CO2 the day before they were transfected with pcDNA3.1(+)-empty vector or pcDNA3.1(+)-WT-TTR using […] (Roche) according to the manufacturer's instructions. After 48 hours, the cells were washed with PBS twice before adding fresh DMEM (without FBS) with A2 (final concentration: 10 μM), and the cells were incubated at 37° C. for 1 hour. After two washes with PBS, the cells were fixed at 25° C. for 15 minutes with 3.7% (w/v) paraformaldehyde in PBS. […]

t50 of conjugate formation in phosphate buffer (pH 7) (WT-TTR [1]; TTR 2 μM) | t50 of conjugate formation in HeLa cell lysate (WT-TTR [1]; WT-TTR 2 μM, lysate 2 μg/μL, 37° C.) | % Modification of TTR subunits in Human Blood Plasma [2] | fluorescence quantum yield in complex or conjugate with TTR (WT-TTR [3]) | Structure (SMILES) | conjugate fluorescence in HeLa cells expressing WT-TTR [4]
19 minutes | 18 min and 20 min | 48% | 0.27 | Cc1cc(/C=C/c2cc(C(=O)Sc3ccc(F)cc3)cc(N(C)C)c2)cc(C)c1O [Compound A2, (E)-S-4-fluorophenyl 3-(dimethylamino)-5-(4-hydroxy-3,5-dimethylstyryl)-benzothioate] | strong conjugate fluorescence
 |  | 48% (±1.3%) |  | Cc1cc(/C=C/c2cccc(C(=O)Sc3ccccc3)c2)cc(C)c1O [Compound 2, (E)-S-phenyl 3-(4-hydroxy-3,5-dimethylstyryl)benzothioate] | 
